Data reported in paper PMC9959553, “Promising Antifungal Molecules against Mucormycosis Agents Identified from Pandemic Response Box®: In Vitro and In Silico Analyses” (Journal of Fungi, 2023).

Test system: R. oryzae UCP1295
Experiment: Screening of the Pandemic Response Box library at 5 µM
Format: cell-based, Rhizopus oryzae
Conditions: 48 h, Table S1, mean of the four values
How it was run: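 Compounds at 5 μM in RPMI 1640 with 2% glucose and MOPS (0.165 mol/L, pH 7.2), with conidia at 2 × 10^5/mL, incubated 48 h at 37 °C in 5% CO2. Growth read by OD at 600 nm; hits defined as ≥60% inhibition. Posaconazole (5 μM) and 1% DMSO as controls.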

Compound | % of growth inhibition, Mean [%]
O=C(Nc1cccc(C2=NCCN2)c1)c1ccc(-c2ccc(C(=O)Nc3cccc(C4=NCCN4)c3)cc2)cc1 [MMV1580853] | -34.0
NC[C@H]1O[C@H](O[C@H]2[C@H](O)[C@@H](O[C@H]3O[C@H](CO)[C@@H](O)[C@H](N)[C@H]3O)[C@H](N)C[C@@H]2N)[C@H](N)C[C@@H]1O [MMV002459] | -14.1
C[C@@]1(O)[C@H](O)[C@@H](CO)O[C@H]1n1ccc2c(N)ncnc21 [MMV1593519] | 10.3
CC(C)(C)NC(=O)N[C@H](C(=O)N1C[C@H]2[C@@H]([C@H]1C(=O)NC(CC1CCC1)C(=O)C(N)=O)C2(C)C)C(C)(C)C (stereo partly drawn) [MMV1580497] | -8.5
CC1=C(/C=C/C(C)=C/C=C/C(C)=C/C(=O)Nc2ccc(O)cc2)C(C)(C)CCC1 [MMV001793] | -8.1
O=C(Nc1ccc(N2CCN(C(=O)c3ccccc3)CC2)cc1)c1ccc2c(c1)OCO2 [MMV1580505] | -9.9
CC(C)(C)c1ccc(Oc2ccc(N)cc2)cc1 [MMV1174026] | -12.8
O=C(Cc1ccccc1F)Nc1nc2ccccc2[nH]1 [MMV1578576] | -39.7
O=C(Nc1nnc(-c2ccccc2)o1)c1ccc(F)cc1 [MMV1578578] | -32.9
O=C(Cn1cnc2ccccc2c1=O)Nc1ccccc1 [MMV1578891] | -16.0
Cn1cncc1[C@@](N)(c1ccc(Cl)cc1)c1ccc2c(c1)c(-c1cccc(Cl)c1)cc(=O)n2C [MMV658803] | -24.4
O=C1c2cccc3cccc(c23)C(=O)N1CC1CO1 (stereo not drawn) [MMV1634360] | -18.1
CC[C@H]1OC(=O)[C@H](C)[C@@H](O[C@H]2C[C@@](C)(OC)[C@@H](O)[C@H](C)O2)[C@H](C)[C@@H](O[C@@H]2O[C@H](C)C[C@H](N(C)C)[C@H]2O)[C@](C)(O)C[C@@H](C)C(=O)[C@H](C)[C@@H](O)[C@]1(C)O [MMV003137] | -11.8
CC(C)Oc1ccc(-c2nc(-c3cccc4c3CC[C@@H]4NCCO)no2)cc1C#N [MMV1580492] | -7.3
COc1cc(C)c2c(Oc3cccc(C(F)(F)F)c3)c(OC)cc(NC(C)CCCN)c2n1.O=C(O)CCC(=O)O (stereo not drawn) [MMV000043] | -36.7
COc1ccc(OCc2ccc(COc3c(Cl)cccc3Cl)cc2)c(Cl)c1 [MMV1580485] | -2.8
CCc1nc2ccc(Cl)cn2c1C(=O)NCc1ccc(N2CCC(c3ccc(OC(F)(F)F)cc3)CC2)cc1 [MMV687696] | -33.4
CCCCCCCCC(CP(=O)(O)C(C)N)C(=O)O (stereo not drawn) [MMV1582487] | -11.5
CCC[C@H](NC(=O)[C@@H]1[C@H]2CCC[C@H]2CN1C(=O)[C@@H](NC(=O)[C@@H](NC(=O)c1cnccn1)C1CCCCC1)C(C)(C)C)C(=O)C(=O)NC1CC1 [MMV1580494] | -15.1
CCN(CC)CCCC(C)Nc1ccnc2cc(Cl)ccc12 (stereo not drawn) [MMV000008] | -3.5
CCN(CC)CCn1c(=N)n(CC(O)COc2ccc(Cl)cc2Cl)c2ccccc21 (stereo not drawn) [MMV000725] | -27.5
Cc1ccc(S(=O)(=O)Nc2cccc3cccnc23)cc1 [MMV233495] | -0.4
COCCn1cnc2c(O)nc(Nc3ccccc3)nc21 [MMV1782103] | -15.7
NC(=O)[C@@H]1CC[C@@H]2CN1C(=O)N2OS(=O)(=O)O [MMV1613560] | -12.6
CN1c2ccc(Cl)cc2N(c2ccccc2)C(=O)c2cn(Cc3ccc(CN4CCOCC4)cc3)nc21 [MMV1782222] | 3.4

Compound | % of growth inhibition, Mean [%]
Cc1nc(Nc2ccc(F)cc2)nc(N2CCc3ccccc3C2C)c1C (stereo not drawn) [MMV030787] | -5.0
N#Cc1c(F)c(Cl)c(NCc2ccccc2)c(C#N)c1F [MMV1582496] | -1.3
Fc1ccc(-n2cc(Cn3c(-c4cccc(F)c4)nc4ccccc43)nn2)cc1 [MMV1580850] | -26.0
O=C(c1nc2c(C(F)(F)F)cc(C3CC3)cn2c1Cl)N1CCN([C@H]2CC[C@H](O)CC2)C(=O)C1 [MMV1634396] | -11.9
OCCCCn1cnc2c(O)nc(NCc3ccc(Cl)c(Cl)c3)nc21 [MMV1593542] | -14.0
Nc1cccc(-c2nc(N)nc(NC3Cc4ccccc4C3)n2)c1 [MMV1581555] | -6.9
CC(N)C12CC3CC(CC(C3)C1)C2 (stereo not drawn) [MMV637855] | 3.7
C(=C\c1nc2ccccc2[nH]1)/c1ccc2c(c1)OCO2 [MMV1582495] | -6.2
O=C1NC(=O)C(Br)=C1Br [MMV1578554] | -14.5
Cc1c(CN(C)C(=O)/C=C/c2cnc3c(c2)C(C)(C)C(=O)N3)oc2ccccc12 [MMV1579788] | -28.8
O=C1NC(=S)N/C1=C\c1cc(Br)cc(Br)c1O [MMV1578569] | -14.5
CC#C[C@]1(O)CC[C@H]2[C@@H]3CCC4=CC(=O)CCC4=C3[C@@H](c3ccc(N(C)C)cc3)C[C@@]21C [MMV003297] | -3.7
CCCCN1C[C@H](O)[C@@H](O)[C@H](O)[C@H]1CO [MMV1782098] | -8.6
CNCC(=O)OCc1cccnc1N(C)C(=O)OC(C)[n+]1cnn(C[C@](O)(c2cc(F)ccc2F)[C@@H](C)c2nc(-c3ccc(C#N)cc3)cs2)c1 (stereo partly drawn) [MMV1634494] | -14.8
Nc1cnn(C2OC(CO)C(O)C2O)c(=O)n1 (stereo not drawn) [MMV1580495] | -5.9
COc1cc2c(O)c3c(c(-c4ccc5c(c4)OCO5)c2cc1OC)C(=O)OC3 [MMV102270] | -33.2
Cc1c(F)cccc1NC(=O)Nc1ccc(Cl)c(S(=O)(=O)[C@H]2CCCNC2)c1O [MMV1581034] | -0.9
CCCCOC(=O)Nc1cc2nc(C3CCCCC3)[nH]c2cc1N(CC)CC [MMV1578842] | -0.4
Cc1cccc(CC(=O)N[C@H]2CCOC2=O)c1 [MMV1579782] | -2.1
Oc1c(C(Nc2ccccn2)c2ccccc2)ccc2cccnc12 (stereo not drawn) [MMV565773] | -30.1
O=C(Nc1ncc(Cc2cccc3ccccc23)s1)C1CCCCC1 [MMV1593532] | -14.7
CCc1oc2ccccc2c1C(=O)c1ccc(O)cc1 [MMV1578558] | -39.8
NS(=O)(=O)c1ccc(NC(=O)NC(c2ccccc2)c2ccccc2)cc1 [MMV1579776] | -24.2
CCOCc1nc2c(N)nc3ccccc3c2n1CC(C)(C)O [MMV690547] | -3.7
Nc1nc(=O)c(Br)c(-c2ccccc2)[nH]1 [MMV690540] | -23.8

Compound | % of growth inhibition, Mean [%]
CCN1CCN(Cc2nc3ccc([N+](=O)[O-])cc3c(=O)n2-c2ccccc2F)CC1 [MMV275100] | -8.8
O=S(=O)(NCB(O)O)c1ccc(-c2nnn[nH]2)cc1C(F)(F)F [MMV1782411] | -7.7
Cc1cc(NS(=O)(=O)c2ccc(-c3ccc(F)cc3F)cc2)no1 [MMV1782217] | -29.1
COc1ccc(CNC(=O)C2CCN(C(C)c3cccc4ccccc34)CC2)cc1 (stereo not drawn) [MMV1634397] | -12.7
COc1ccc(C[C@@H](C)[C@@H](C)Cc2ccc(OC)c(OC)c2)cc1OC [MMV1581036] | -8.8
O=C(NC(=O)N1CCCc2ccccc21)c1cccc(Cl)c1 [MMV1782351] | -17.9
O=c1nc(N2CCN(CC3CCCCC3)CC2)sc2c([N+](=O)[O-])cc(C(F)(F)F)cc12 [MMV1578885] | -14.2
O=c1[nH]cnc2c1ncn2[C@H]1CC[C@@H](CO)O1 [MMV637306] | -2.1
C[C@H](c1cccc2ccccc12)N(C)Cc1ccccc1 [MMV1782221] | -14.5
O[C@@](Cn1cnnn1)(c1ccc(F)cc1F)C(F)(F)c1ccc(-c2ccc(OCC(F)(F)F)cc2)cn1 [MMV1634386] | -15.2
COc1ccc(SCC(=O)N2c3ccccc3Sc3ccccc32)cc1 [MMV1578573] | -3.7
NC(=O)c1nccn([C@@H]2O[C@H](CO)[C@@H](O)[C@H]2O)c1=O [MMV1782104] | -4.9
Nc1cc(-c2nc3ccccc3[nH]2)n[nH]c1=O [MMV975972] | 0.3
Nc1c(C(=O)NCc2ccco2)c2nc3ccccc3nc2n1CCN1CCCCC1 [MMV099714] | -2.7
CONC(=N)c1ccc(-c2ccc(-c3ccc(C(=N)NOC)cc3)o2)cc1 [MMV000059] | -38.5
C=CCN(C(=O)OCc1ccc([N+](=O)[O-])cc1)C1CCN(CC[C@](C)(CN(C)S(=O)(=O)c2ccccc2)c2ccccc2)CC1 [MMV1782214] | 14.4
NC1C2CC3CC(C2)CC1C3 (stereo not drawn) [MMV180402] | 3.0
COc1ccc(-n2cnc3cc(NCc4ccco4)ccc32)cc1 [MMV617332] | 22.8
COc1cc(C(C)(C)CCCC(C)C)cc(OC)c1OC [MMV1782102] | -11.2
O=C(O)C(Cc1c[nH]c2ccccc12)N1C(=O)c2ccccc2C1=O (stereo not drawn) [MMV452821] | -16.1
O=P(O)(O)C(CCCc1cccc(Oc2ccccc2)c1)S(=O)(=O)O (stereo not drawn) [MMV1782215] | -6.1
COc1cc(C(C(=O)NC2CCCCC2)N(C(=O)Cc2c[nH]c3ccccc23)c2ccc(C(C)C)cc2)cc(OC)c1OC (stereo not drawn) [MMV1593544] | -2.6
CCCNc1ccc(S(=O)(=O)Nc2cc(C)on2)cc1 [MMV1782216] | -18.8
Oc1cc(-c2cccc3ccccc23)[nH]n1 [MMV422940] | -11.7
O=C(/C(=C/c1ccc(Cl)cc1Cl)n1ccnc1)c1ccc(Cl)cc1 [MMV1634491] | -15.1
